Assay results taken from patent US10894775B2, “Piperidine derivatives as liver X receptor beta agonists, compositions, and their use” (Merck Sharp & Dohme Corp., priority 2016, dated 2021).
Where two headings read alike, the source gives them in different places.

Key:
[1] = target: T1, glutathione-S-transferase (GST) tagged LXRbeta LBD (ligand binding domain) (Homo sapiens, UniProt P55055); assay: LanthaScreen TR-FRET Liver X Receptor Coactivator Assay, LXR beta; type: biochemical; conditions: for EC50: potency (Inflection Point) of compound-induced co-activator recruitment, TR-FRET; for Emax: read-out: LXR beta actiivty at max dose (%)
T1 construct: purchased Invitrogen pv4658.pps
T1 sequence (P55055 222-460 limits assumed): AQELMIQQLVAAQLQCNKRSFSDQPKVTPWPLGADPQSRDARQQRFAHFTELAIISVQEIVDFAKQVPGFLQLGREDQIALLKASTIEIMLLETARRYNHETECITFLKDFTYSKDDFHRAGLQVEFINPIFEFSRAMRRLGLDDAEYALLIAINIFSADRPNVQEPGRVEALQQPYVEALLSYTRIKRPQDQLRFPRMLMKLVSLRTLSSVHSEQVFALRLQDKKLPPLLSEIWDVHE
Procedure, shortened: (§1)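 Coactivator recruitment format: receptor LBD exposed to compounds, detection via Tb-antibody/fluorescein-peptide pair, room-temperature incubation, TR-FRET signal on a filter instrument.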

[2] = target: T2, glutathione-S-transferase (GST) tagged LXRalpha LBD (ligand binding domain) (Homo sapiens, UniProt Q13133); assay: LanthaScreen TR-FRET Liver X Receptor Coactivator Assay, LXR alpha; type: biochemical; conditions: for Emax: read-out: LXR alpha actiivty at max dose (%); for EC50 / LXR alpha IP (nM): potency (Inflection Point) of compound-induced co-activator recruitment, TR-FRET
T2 construct: purchased Invitrogen pv4655
T2 sequence (Q13133 209-447 limits assumed): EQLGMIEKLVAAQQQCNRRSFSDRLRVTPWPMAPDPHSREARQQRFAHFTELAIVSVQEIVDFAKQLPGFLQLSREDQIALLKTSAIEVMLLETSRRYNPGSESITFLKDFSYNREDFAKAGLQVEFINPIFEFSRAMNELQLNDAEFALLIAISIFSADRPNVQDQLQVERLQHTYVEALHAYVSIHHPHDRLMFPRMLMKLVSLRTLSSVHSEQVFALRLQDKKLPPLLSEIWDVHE
Procedure, shortened: as §1

[3] = efficacy (Emax) in relation to reference dual agonist T0901317

Structure (SMILES) | EC50 ([1]; LXR beta IP (nM)) | Emax [1] | Emax [2, 3] | EC50 ([2]; read-out: LXR alpha IP) | Emax [1, 3] | EC50 ([1]; read-out: LXR beta IP) | LXR alpha IP (nM) [2] | Emax [2] | EC50 ([2]; LXR alpha IP (nM))
COc1cccc(C(O)(C(=O)N2CCC3(CCC(Sc4ccc(C(=O)N(C)C)c(Cl)c4)CC3)CC2)C(F)(F)F)c1 (single isomer, unassigned) [Example 19-1, 2-chloro-N,N-dimethyl-4-(3-((R or S)-3,3,3-trifluoro-2-hydroxy-2-(3-methoxyphenyl)propanoyl)-3-azaspiro[5.5]undecan-9-ylthio)benzamide] | 58 nM | 101% | 23% | 1060 nM | – | – | – | – | –
CN(C)C(=O)c1ccc(SC2CCC3(CC2)CCN(C(=O)C(O)(c2cc(Cl)cc(Cl)c2)C(F)(F)F)CC3)cc1Cl (single isomer, unassigned) [Example 19-2, 2-chloro-4-(3-((R or S)-2-(3,5-dichlorophenyl)-3,3,3-trifluoro-2-hydroxypropanoyl)-3-azaspiro[5.5]undecan-9-ylthio)-N,N-dimethylbenzamide] | – | – | 8% | – | 74% | 38 nM | No IP | – | –
CCOc1cccc(C(O)(C(=O)N2CCC3(CCC(Sc4ccc(C(=O)N(C)C)c(Cl)c4)CC3)CC2)C(F)(F)F)c1 (single isomer, unassigned) [Example 19-3, 2-chloro-4-(3-((S or R)-2-(3-ethoxyphenyl)-3,3,3-trifluoro-2-hydroxypropanoyl)-3-azaspiro[5.5]undecan-9-ylthio)-N,N-dimethylbenzamide] | – | – | 0% | – | 95% | 136 nM | No IP | – | –
CN(C)C(=O)c1ccc([S+]([O-])C2CCC3(CC2)CCN(C(=O)C(O)(c2cc(Cl)cc(Cl)c2)C(F)(F)F)CC3)cc1Cl (single isomer, unassigned) [Example 20-1, 2-chloro-4-(3-((R or S)-2-(3,5-dichlorophenyl)-3,3,3-trifluoro-2-hydroxypropanoyl)-3-azaspiro[5.5]undecan-9-ylsulfinyl)-N,N-dimethylbenzamide] | 938 nM | 50% | – | – | – | – | No IP | 0% | –
CN(C)C(=O)c1ccc(S(=O)(=O)C2CCC3(CC2)CCN(C(=O)C(O)(c2cc(Cl)cc(Cl)c2)C(F)(F)F)CC3)cc1Cl (single isomer, unassigned) [Example 21-1, 2-chloro-4-(3-((R or S)-2-(3,5-dichlorophenyl)-3,3,3-trifluoro-2-hydroxypropanoyl)-3-azaspiro[5.5]undecan-9-ylsulfonyl)-N,N-dimethylbenzamide] | 1460 nM | 50% | – | – | – | – | No IP | 0% | –
COc1cccc([C@@](O)(C(=O)N2CCC([C@H]3C[C@H]3CSc3ccc(C(=O)N(C)C)c(Cl)c3)CC2)C(F)(F)F)c1 (single isomer, unassigned) [Example 23-1, 2-chloro-N,N-dimethyl-4-(((1R,2R or 1S,2S)-2-(1-((R or S)-3,3,3-trifluoro-2-hydroxy-2-(3-methoxyphenyl)propanoyl)piperidin-4-yl)cyclopropyl)methylthio)benzamide] | – | – | 24% | 946 nM | 118% | 27 nM | – | – | –
CNC(=O)c1ccc(NCCCCC2CCN(C(=O)C3(c4ccccc4)CCCC3)CC2)cc1Cl [Example 1-4, 2-chloro-N-methyl-4-(4-(1-(1-phenylcyclopentanecarbonyl)piperidin-4-yl)butylamino)benzamide] | – | – | 2% | – | 42% | 183 nM | No IP | – | –
CN(C)C(=O)c1ccc(NCCCC2CCN(S(=O)(=O)c3c(Cl)cccc3Cl)CC2)cc1Cl [Example 1-12, 2-chloro-4-(3-(1-(2,6-dichlorophenylsulfonyl)piperidin-4-yl)propylamino)-N,N-dimethylbenzamide] | – | – | 46% | 855 nM | 82% | 27 nM | – | – | –
CN(C)C(=O)c1ccc(NCCC2CCN(C(=O)OCc3ccccc3)CC2)cc1Cl [Example 1-13, benzyl 4-(2-(3-chloro-4-(dimethylcarbamoyl)phenylamino)ethyl)piperidine-1-carboxylate] | – | – | 12% | – | 21% | 104 nM | No IP | – | –
CN(C)C(=O)c1ccc(NCCCCC2CCN(C(=O)OCc3ccccc3)CC2)cc1Cl [Example 1-14, benzyl 4-(4-(3-chloro-4-(dimethylcarbamoyl)phenylamino)butyl)piperidine-1-carboxylate] | – | – | 14% | 1970 nM | 41% | 106 nM | – | – | –
CN(C)C(=O)c1ccc(NCCCCC2CCN(C(=O)C(O)(c3ccccc3)C(F)(F)F)CC2)nc1Cl (stereo not shown) [Example 2-1, 2-chloro-N,N-dimethyl-6-(4-(1-(3,3,3-trifluoro-2-hydroxy-2-phenylpropanoyl)piperidin-4-yl)butylamino)nicotinamide] | – | 52% | – | – | – | 29 nM | – | 25% | 1250 nM
CN(C)C(=O)c1ccc(N(C)CCC2CC3(CCN(C(=O)C(C)(C)c4ccccc4)CC3)C2)nc1Cl [Example 12-1, 2-chloro-N,N-dimethyl-6-(methyl(2-(7-(2-methyl-2-phenylpropanoyl)-7-azaspiro[3.5]nonan-2-yl)ethyl)amino)nicotinamide] | – | 34% | – | – | – | 430 nM | No IP | 5% | –
CN(Cc1ccc(C(=O)N(C)C)c(Cl)c1)CC1CC12CCN(C(=O)C(C)(C)c1ccccc1)CC2 (stereo not shown) [Example 14-1, 2-chloro-N,N-dimethyl-4-((methyl((6-(2-methyl-2-phenylpropanoyl)-6-azaspiro[2.5]octan-1-yl)methyl)amino)methyl)benzamide] | – | – | 33% | 15500 nM | 99% | 1260 nM | – | – | –
CN(C)C(=O)c1ccc(CCCCC2CCN(C(=O)C(C)(C)c3ccccc3)CC2)cc1Cl [Example 15-4, 2-chloro-N,N-dimethyl-4-(4-(1-(2-methyl-2-phenylpropanoyl)piperidin-4-yl)butyl)benzamide] | – | – | 39% | 463 nM | 103% | 32 nM | – | – | –
CN(C)C(=O)c1ccc(CCCC2CC3(CCN(C(=O)C(C)(C)c4ccccc4)CC3)C2)cc1Cl [Example 16-3, 2-chloro-N,N-dimethyl-4-(3-(7-(2-methyl-2-phenylpropanoyl)-7-azaspiro[3.5]nonan-2-yl)propyl)benzamide] | – | – | 50% | 423 nM | 108% | 56 nM | – | – | –
CN(C)C(=O)c1ccc(S(=O)(=O)CCCCC2CCN(C(=O)C(C)(C)c3ccccc3)CC2)cc1Cl [Example 22-1, 2-chloro-N,N-dimethyl-4-(4-(1-(2-methyl-2-phenylpropanoyl)piperidin-4-yl)butylsulfonyl)benzamide] | – | – | 2% | – | 57% | 1990 nM | No IP | – | –
